Measurements as given in US20260315653A1, “ANTICOAGULANT COMPOSITIONS COMPRISING ANTI-PLATELET AND ANTI-INFLAMMATORY DRUGS AND METHODS AND DEVICES FOR THEIR USE” (Elixir Medical Corporation, priority 2023, published 2026).

Key:
[1] = system: blood clotting (fresh pig blood); experiment: Activated clotting time (ACT) of EDTA or analogues in fresh pig blood (Example 12); conditions: for Increase in clotting time compared to control: control 154 sec
Method: The activated clotting time (ACT) evaluation of EDTA or analogues was performed in fresh pig blood and recorded employing the Hemochron® Response device.
The ACT measurements were made in fresh pig blood. 1.0 ml of fresh pig blood was added to a test tube containing an activator (Hemochron@Celite@ ACT tubes, Lot F8FTE026 from Accriva Diagnostics, Inc.). A target amount of drug solution was then added into the test tube. The test tube was gently swirled so that the blood and drug was well-mixed. 0.1 ml of 0.3M calcium chloride was then added. The tube was gently shaken before being inserted into the Hemochron Response detector. The ACT read out was recorded and reported. The ACT of the control blood in the absence of any drug as first determined to establish a baseline. Then ACT was determined in the presence of different concentrations of EDTA or analogues as a single component.

[2] = pH of 1 mg/ml EDTA or analogue in water or phosphate buffer; type: physicochemical
Excerpt: Based on the pH of EDTA or analogues in water and in 0.1M phosphate buffered saline as show in Table 2, EDTA disodium salt or dipotassium salt has a pH close to neutral pH in human body (6.42-6.92), whereas EDTA tetrasodium or trisodium has a very basic pH (>8.0) in human body. EDTA disodium or dipotassium is preferred in the examples.

[3] = In-vitro elution of coated stents in 0.01M phosphate buffered saline at 37° C. (HPLC); type: physicochemical; conditions: 5 min
Method: (§1) In-Vitro Elution evaluation of the EDTA coated stent above prepared was performed in 0.01M phosphate buffered saline at 37° C. water shaking bath then tested on High Performance Liquid Chromatography (HPLC). EDTA was separated from interfering peaks by a Carbon18 reverse phase column and quantified with an external EDTA calibration standard solution prepared at similar concentrations. The percentage of EDTA eluted was calculated during each time point.
as §1, with “of Tetra acetoxymethyl ester” for “of the”, “stent” for “stent above prepared”, “(HPLC). Tetra acetoxymethyl ester” for “(HPLC).”, “external tetra acetoxymethyl ester” for “external”, “of tetra acetoxymethyl ester” for “of”
In-Vitro Elution evaluation of the EDTA complex coated stent was performed in 0.01M phosphate buffered saline at 37° C. water shaking bath then tested on High Performance Liquid Chromatography (HPLC). EDTA disodium was separated from interfering peaks by a Carbon18 reverse phase column and quantified with an external EDTA disodium calibration standard solution prepared at similar concentrations. […]

[4] = pH of 1 mg/ml EDTA or analogue in water or phosphate buffer; type: physicochemical; conditions: 1 mg/ml in 0.01 M pH 7.4 phosphate buffer; 21.8-22.3 ° C.; listed as EDTA tetra sodium

O=C(O)CN(CCN(CC(=O)O)CC(=O)O)CC(=O)O [EDTA•4Na•xH2O]
Clotting time (ACT) ([1]; 100 ng/mg): 204 s
Increase in clotting time compared to control ([1]; 100 ng/mg): 50 s
Clotting time (ACT) ([1]; 200 ng/mg): 275 s
Increase in clotting time compared to control ([1]; 200 ng/mg): 121 s
Clotting time (ACT) ([1]; 250 ng/mg): 329 s
Increase in clotting time compared to control ([1]; 250 ng/mg): 175 s
Clotting time (ACT) ([1]; 300 ng/mg): >500 s
Increase in clotting time compared to control ([1]; 300 ng/mg): >346 s
blood coagulation compared to the blood control ([1]; EDTA 200 ng/mg, sodium salts 300 ng/mg, listed as EDTA tetra sodium salt): The same trend
pH ([2]; 1 mg/ml in d-water, 21.8-22.0 ° C., listed as EDTA tetra sodium): 9.61
pH ([2]; in water and phosphate buffered saline, listed as EDTA tetrasodium): > 8.0
Cumulative percent release of EDTA [3]: about 99.8%
pH [4]: 8.27
